According to the supplement of paper PMC10307832:

What follows are cell lines tested with Cc1nc(C(=O)NCC(=O)O)c(O)c2ccc(Oc3ccccc3)cc12 [FG-4592] + Cc1nc(NC(=O)N2CCC[C@H]2C(N)=O)sc1-c1ccnc(C(C)(C)C(F)(F)F)c1 [Alpelisib] (partner 2 µM) (assay: relative viability (nuclei count vs DMSO), 5 days (fraction); higher = more cells survive). Settings: first compound 2.53 µM.
How it was run: (§1)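 After 5 days of treatment, lung cancer cells in 1536-well plates were fixed and stained in a single step (final 0.05% Triton X-100, 1% formaldehyde, 1 ug/ml Hoechst) and their nuclei counted on 4× images. Treatment had been applied by pin tool the day after seeding as one drug alone or as a fixed anchor-drug dose with five library-drug doses (not always all listed) in √10 steps. Relative viability is the nuclei count of treated wells divided by that of vehicle wells, and values are medians of duplicate plates.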
NCI-H2170 was tested, and the relative viability was 0.826.
HCC-44 showed a relative viability of 0.936.
For A549, the relative viability was 0.759.
For NCI-H2009, the relative viability was 1.15.
With NCI-H661 the relative viability was 0.835.
Cell Line NCI-H1299 has a relative viability of 1.04.
Work on NCI-H2228 yielded a relative viability of 0.766.
In the case of NCI-H1792, the relative viability was 0.619.
With NCI-H2023 the relative viability was 0.631.
NCI-H1563 gave a relative viability of 0.936.

Same assay, conditions: first compound 8 µM
With NCI-H727 the relative viability was 0.561.
Cell Line EBC-1 has a relative viability of 0.814.
NCI-H1703 was tested, and the relative viability was 0.353.
Cell Line NCI-H1993 has a relative viability of 0.669.
In the case of SW 1573, the relative viability was 0.616.
In the case of NCI-H838, the relative viability was 0.816.
In the case of LCLC-103H, the relative viability was 1.06.
NCI-H520 gave a relative viability of 0.74.
Cell Line NCI-H2126 has a relative viability of 0.69.
EMC-BAC-2 showed a relative viability of 0.713.
With NCI-H2085 the relative viability was 0.935.
Calu-6 was tested, and the relative viability was 0.969.
With HCC-366 the relative viability was 0.392.
Cell Line NCI-H1666 has a relative viability of 0.644.
In the case of NCI-H596, the relative viability was 0.527.
LK-2 showed a relative viability of 1.03.
For NCI-H2087, the relative viability was 1.03.
SK-MES-1 showed a relative viability of 0.773.
With H3255 the relative viability was 0.81.
Work on COR-L23 yielded a relative viability of 0.783.
Work on COR-L 105 yielded a relative viability of 1.02.
IA-LM was tested, and the relative viability was 0.433.
Cell Line LOU-NH91 has a relative viability of 0.724.
With NCI-H2170 the relative viability was 0.581.
Work on HCC-44 yielded a relative viability of 0.797.
With A549 the relative viability was 0.686.
Work on NCI-H2009 yielded a relative viability of 1.22.
NCI-H661 showed a relative viability of 0.727.
With SK-LU-1 the relative viability was 0.917.
NCI-H1299 was tested, and the relative viability was 1.04.
With NCI-H2228 the relative viability was 0.637.
With NCI-H1792 the relative viability was 0.721.
Cell Line NCI-H2023 has a relative viability of 0.534.
NCI-H1563 was tested, and the relative viability was 0.845.

What follows are cell lines tested with CC1=CC(=C(N1C2=CC=C(C=C2)Cl)C)C(=O)CN3CCCCC3 [IU1-47] + NC(=O)Nc1cc(-c2cccc(F)c2)sc1C(=O)N[C@H]1CCCNC1 [AZD7762] (partner 0.2 µM) in the same assay as above. Settings: first compound 0.08 µM.
How it was run: as §1
For NCI-H522, the relative viability was 0.889.
NCI-H727 was tested, and the relative viability was 0.582.
NCI-H1703 gave a relative viability of 0.0968.
NCI-H1993 was tested, and the relative viability was 0.682.
NCI-H838 gave a relative viability of 0.931.
LCLC-103H was tested, and the relative viability was 0.84.
Cell Line NCI-H2126 has a relative viability of 1.01.
Work on EMC-BAC-2 yielded a relative viability of 1.1.
NCI-H2085 was tested, and the relative viability was 0.983.
HCC-366 showed a relative viability of 0.281.
NCI-H1666 showed a relative viability of 0.866.
For NCI-H596, the relative viability was 1.06.
LK-2 gave a relative viability of 0.488.
With NCI-H2087 the relative viability was 1.45.
With NCI-H2342 the relative viability was 0.526.
H3255 gave a relative viability of 1.19.
LOU-NH91 showed a relative viability of 0.824.
Cell Line ChaGo-K-1 has a relative viability of 0.934.
NCI-H2170 was tested, and the relative viability was 1.04.
For HCC-44, the relative viability was 1.
SW 900 showed a relative viability of 0.694.
In the case of NCI-H1648, the relative viability was 0.61.
For NCI-H1792, the relative viability was 0.501.

Same assay, conditions: first compound 0.253 µM
Work on NCI-H522 yielded a relative viability of 0.726.
NCI-H727 gave a relative viability of 0.539.
NCI-H1703 showed a relative viability of 0.172.
NCI-H1993 was tested, and the relative viability was 0.763.
NCI-H838 showed a relative viability of 0.99.
For LCLC-103H, the relative viability was 0.948.
Cell Line NCI-H2126 has a relative viability of 1.08.
Cell Line EMC-BAC-2 has a relative viability of 1.24.
NCI-H2085 showed a relative viability of 1.02.
In the case of HCC-366, the relative viability was 0.357.
In the case of NCI-H1666, the relative viability was 0.86.
LK-2 gave a relative viability of 0.557.
In the case of NCI-H2087, the relative viability was 1.29.
NCI-H2342 was tested, and the relative viability was 0.588.
H3255 was tested, and the relative viability was 1.01.
With LOU-NH91 the relative viability was 0.775.
With ChaGo-K-1 the relative viability was 1.01.
Work on NCI-H2170 yielded a relative viability of 1.05.
HCC-44 showed a relative viability of 1.07.
Cell Line NCI-H1648 has a relative viability of 0.727.
With NCI-H1792 the relative viability was 0.613.

Same assay, conditions: first compound 0.8 µM
With NCI-H522 the relative viability was 0.969.
NCI-H727 showed a relative viability of 0.539.
NCI-H1703 gave a relative viability of 0.133.
Cell Line NCI-H1993 has a relative viability of 0.769.
Cell Line NCI-H838 has a relative viability of 0.917.
LCLC-103H was tested, and the relative viability was 0.797.
NCI-H2126 showed a relative viability of 1.14.
EMC-BAC-2 gave a relative viability of 1.09.
With NCI-H2085 the relative viability was 0.997.
HCC-366 showed a relative viability of 0.355.
NCI-H1666 showed a relative viability of 0.854.
For NCI-H596, the relative viability was 1.03.
Work on LK-2 yielded a relative viability of 0.542.
With NCI-H2087 the relative viability was 1.53.
Work on NCI-H2342 yielded a relative viability of 0.57.
H3255 showed a relative viability of 1.08.
Cell Line LOU-NH91 has a relative viability of 0.826.
ChaGo-K-1 was tested, and the relative viability was 0.91.
For NCI-H2170, the relative viability was 0.985.
HCC-44 was tested, and the relative viability was 1.04.
For SW 900, the relative viability was 0.695.
For NCI-H1648, the relative viability was 0.821.
NCI-H1792 was tested, and the relative viability was 0.643.

Same assay, conditions: first compound 2.53 µM
NCI-H522 showed a relative viability of 0.691.
In the case of NCI-H727, the relative viability was 0.512.
In the case of NCI-H1993, the relative viability was 0.781.
NCI-H838 gave a relative viability of 0.925.
With LCLC-103H the relative viability was 0.54.
NCI-H2126 showed a relative viability of 0.712.
EMC-BAC-2 gave a relative viability of 1.07.
NCI-H2085 showed a relative viability of 0.73.
In the case of HCC-366, the relative viability was 0.267.
With NCI-H1666 the relative viability was 0.803.
NCI-H596 was tested, and the relative viability was 0.889.
With LK-2 the relative viability was 0.368.
Cell Line NCI-H2087 has a relative viability of 1.31.
In the case of NCI-H2342, the relative viability was 0.507.
Cell Line H3255 has a relative viability of 0.877.
Work on LOU-NH91 yielded a relative viability of 0.815.
With ChaGo-K-1 the relative viability was 0.91.
In the case of NCI-H2170, the relative viability was 0.76.
Work on HCC-44 yielded a relative viability of 0.959.
SW 900 was tested, and the relative viability was 0.611.
With NCI-H1648 the relative viability was 0.732.
NCI-H1792 was tested, and the relative viability was 0.666.

Same assay, conditions: first compound 8 µM
Cell Line NCI-H522 has a relative viability of 1.
NCI-H727 was tested, and the relative viability was 0.58.
In the case of NCI-H1703, the relative viability was 0.112.
With NCI-H1993 the relative viability was 0.85.
NCI-H838 showed a relative viability of 0.876.
LCLC-103H gave a relative viability of 0.807.
NCI-H2126 showed a relative viability of 0.837.
Cell Line EMC-BAC-2 has a relative viability of 1.07.
Work on NCI-H2085 yielded a relative viability of 1.02.
HCC-366 showed a relative viability of 0.236.
In the case of NCI-H1666, the relative viability was 0.815.
In the case of NCI-H596, the relative viability was 1.03.
LK-2 showed a relative viability of 0.305.
NCI-H2087 gave a relative viability of 1.24.
NCI-H2342 was tested, and the relative viability was 0.486.
H3255 was tested, and the relative viability was 0.893.
Work on LOU-NH91 yielded a relative viability of 0.765.
ChaGo-K-1 gave a relative viability of 0.954.
NCI-H2170 was tested, and the relative viability was 0.976.
HCC-44 gave a relative viability of 1.04.
With SW 900 the relative viability was 0.683.
Work on NCI-H1648 yielded a relative viability of 0.508.
NCI-H1792 was tested, and the relative viability was 0.619.
